For this data set the following is noted: Crystal; visual observation.

± gives the expanded uncertainty stated by the source.

On to `CCCCCCCCO` [octan-1-ol], for which the Normal melting temperature is -15.4 ± 0.16 °C.

As to `CCCCCCCCCCO` [decan-1-ol], the Normal melting temperature came out at 7.04 ± 0.16 °C.

Source of the values: the NIST ThermoML archive (doi:10.1016/j.fluid.2010.04.016).
